Data: patent publication US20240166755A1, “CHIMERIC ANTIGEN RECEPTORS TARGETING CANCER” (University of Southern California, priority 2016, published 2024)

Assays:
[1] = test system: CAR-T cells induced death of RAJI-GLuc cells; test: Effect of drugs on CAR-T cell-induced death of RAJI-GLuc cells (GLuc assay); assay type: cell-based, human; conditions: for CAR-T cells induced death of RAJI-pLenti-GLuc cells / CAR-T cell-induced death of RAJI-pLenti-GLuc cells / CAR-T cells induced cell death: CD19Bu12 CAR-T cells; for CAR-T cell-induced death of RAJI-pLenti-GLuc cells: versus media alone; for CAR-T cell induced cell death: FMC63 and CD19MM CAR-T cells, Imatinib 50 nM and 500 nM, Nilotinib 10 nM and 100 nM, Axitinib
[2] = test system: Blinatumomab induced cell death of RAJI-GLuc cells mediated by T cells; test: Blinatumomab-induced, T cell-mediated death of RAJI-GLuc cells and its block by drugs (GLuc assay); assay type: cell-based, human
Lck = Lck (Homo sapiens, UniProt P06239); conditions: Lck versus Fyn; cited from earlier work
[3] = test system: target cells expressing their respective target antigen; test: Jurkat-NFAT-GFP assay, co-culture with target cells expressing the respective target antigen (Table 28); conditions: Jurkat-NFAT-GFP cells expressing the CAR; cell line(s) giving greater % GFP positive cells than parental
NF-κB = NF-κB luciferase reporter assay in 293FT cells; assay type: cell-based; conditions: upon treatment with AP20187, versus untreated
Protocol: NF-κB reporter assay was carried out essentially as described (Chaudhary et al., Oncogene 18:5738-46, 1999). The indicated constructs were transiently transfected in 293FT cells along with a luciferase reporter construct driven by 4 copies of NF-κB binding site and a RSV-LacZ reporter construct. Cells were left untreated or treated with AP20187, which dimerizes the FKBP domains, resulting in activation of K13 signaling. Approximately 24 hr later, cells were lysed and NF-κB-Luc and LacZ activities measured in cell lysates. NF-κB-Luc activity was normalized relative to LacZ activity to control for difference in transfection efficiency. […] Thus, activity of K13 and Tax can be controlled by fusion with FKBP and subsequent administration of AP20187 when they are expressed alone or as part of CAR constructs.
It would be useful to have novel mutants of K13 with varying levels of NF-κB activity for the purpose of adoptive cellular therapy and other applications. Site-directed mutagenesis was conducted using Quickchange site-directed kit (Stratagene) to generate several point mutants of K13 in which the different amino acids of K13 (SEQ ID NO:2629) were mutated. For example, in the mutant K19A the amino acid Lysine at position 19 is mutated to alanine. […] Approximately 24 hr later, cells were lysed and NF-κB-Luc and LacZ activities measured in cell lysates. […]

[4] = at the indicated concentrations

Lck, sequence (P06239 whole entry, species assumed): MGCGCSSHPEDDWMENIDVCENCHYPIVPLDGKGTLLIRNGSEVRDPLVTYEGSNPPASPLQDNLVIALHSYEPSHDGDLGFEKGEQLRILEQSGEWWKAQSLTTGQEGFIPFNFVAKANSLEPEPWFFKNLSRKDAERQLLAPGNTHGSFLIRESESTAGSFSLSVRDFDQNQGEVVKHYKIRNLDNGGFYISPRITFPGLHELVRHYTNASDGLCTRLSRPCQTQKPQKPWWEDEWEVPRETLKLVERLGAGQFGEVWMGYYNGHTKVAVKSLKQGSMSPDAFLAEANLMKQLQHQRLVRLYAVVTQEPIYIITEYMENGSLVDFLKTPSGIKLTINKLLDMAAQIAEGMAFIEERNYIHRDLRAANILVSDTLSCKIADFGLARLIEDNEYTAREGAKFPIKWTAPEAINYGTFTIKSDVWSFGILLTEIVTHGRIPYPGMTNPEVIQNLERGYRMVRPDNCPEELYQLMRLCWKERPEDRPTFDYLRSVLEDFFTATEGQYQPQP

COc1cc(-c2nn([C@H]3CC[C@H](N4CCN(C(C)=O)CC4)CC3)c3ncnc(N)c23)ccc1NC(=O)c1cc2ccccc2n1C [A-770041]
CAR-T cells induced death of RAJI-pLenti-GLuc cells ([1]; 100 nM and 200 nM): near complete inhibition | cell death induced by combination of Blinatumomab with T cells ([2]; 100 nM): partially blocked | cell death induced by combination of Blinatumomab with T cells ([2]; 200 nM): complete inhibition | selective against Fyn (Lck): 300 fold

COc1cc(Nc2ncc3c(n2)-c2ccc(Cl)cc2C(c2c(F)cccc2OC)=NC3)ccc1C(=O)O [Alisertib]
CAR-T cell-induced death of RAJI-pLenti-GLuc cells [1]: mild to modest inhibition | Blinatumomab induced cell death mediated by T cells [2, 4]: only a minimal effect

CC(C)c1cc(C(C)C)c(CC(=O)NS(=O)(=O)Oc2c(C(C)C)cccc2C(C)C)c(C(C)C)c1 [Avasimibe]
CAR-T cells induced cell death ([1]; 100 nM): no significant effect | CAR-T cells induced cell death ([1]; 1 μM): completely blocked | Blinatumomab induced cell death mediated by T cells ([2]; 1 μM): blocked

CNC(=O)c1ccccc1Sc1ccc2c(/C=C/c3ccccn3)n[nH]c2c1 [Axitinib]
CAR-T cell induced cell death [1]: no effect

COc1cc(Nc2ncc(F)c(Nc3ccc4c(n3)N(COP(=O)(O)O)C(=O)C(C)(C)O4)n2)cc(OC)c1OC [Fosatamatinib]
CAR-T cell-induced death of RAJI-pLenti-GLuc cells [1]: mild to modest inhibition | Blinatumomab induced cell death mediated by T cells [2, 4]: only a minimal effect

Cc1ccc(NC(=O)c2ccc(CN3CCN(C)CC3)cc2)cc1Nc1nccc(-c2cccnc2)n1 [Imatinib]
CAR-induced cell death ([1]; CD19MM CAR-T cells, E:T 5:1, 4 h, indicated concentrations): no effect | CAR-T cell induced cell death [1]: no effect

Cc1cn(-c2cc(NC(=O)c3ccc(C)c(Nc4nccc(-c5cccnc5)n4)c3)cc(C(F)(F)F)c2)cn1 [Nilotinib]
CAR-T cell induced cell death [1]: no effect

CN1CCN(CCOc2cc(OC3CCOCC3)c3c(Nc4c(Cl)ccc5c4OCO5)ncnc3c2)CC1 [Saracatinib]
CAR-T cells induced death of RAJI-pLenti-GLuc cells ([1]; concentration not given): no significant effect

CD8SP-CD22-m971-(vL-vH)-Myc-BBz-T2A-PAC(091515-A02)[SEQ ID NO: 1519]
Positive Cell Line on co-culture assay [3]: RAJI, NALM6

CD8SP-GD3-KM-641-(vL-vH)-Myc-z-P2A-K13-Flag-T2A-PAC(051016-D04)[SEQ ID NO: 1065]
Positive Cell Line on co-culture assay [3]: MEL624

FKBPX2-K13: K13 in fusion with two copies of FKBP dimerization domain
K13- and HTLV2-Tax RS mutant-induced NF-κB-Luc activity (NF-κB): increase
